# Laboratory results: patent US20120156242A1 (priority 2009, published 2012)
# Key:
# monoclonal antibody D-1 = assay: Inhibition by synthetic peptides of the neutralization activity of D-1; type: cell-based, human; details: D-1 and influenza A virus incubated with synthetic peptide
# [1] = in vivo; for eliciting of antibody (antibody titer of rabbit immune serum against the peptide): sc
Sequence,neutralization inhibition rate (monoclonal antibody D-1),eliciting of antibody (antibody titer of rabbit immune serum against the peptide) [1],antigenicity ([1]; rabbit)
TMPNNEKFDKLYIWGVHHPGT [peptide 1],about 50%,could elicit the antibody in rabbit,high antigenicity compared with the lower region peptide
NIPSRISIYWTIVKPGD [peptide 2],about 20%,could elicit the antibody in rabbit,–
